Assay results published in US20150328280A1, “ALISPORIVR FOR TREATMENT OF HEPATITIS C VIRUS INFECTION” (priority 2011, published 2015).

Legend:
HCV genotype 1 [1] = assay: phase 2 study of genotype 1 treatment-naive patients, sustained virologic response; type: in vivo, human; details: alisporivir 600 mg BID for one week, then 600 mg QD, 48 week treatment, combined with peg-IFNa2a
Source text: The virological response parameters are: rapid virologic response at treatment week 4 (RVR 4) defined by undetectable serum HCV-RNA at treatment week 4; early virological response (EVR), defined by at least 2 log10 IU/mL reduction in HCV-RNA compared to baseline (partial EVR) or undetectable serum HCV-RNA (complete EVR) at treatment week 12; sustained virological response (SVR24), defined as absence of HCV-RNA from serum by a sensitive Polymerase Chain Reaction (PCR) assay 24 weeks following end of therapy or the HCV RNA is undetectable (by LOD) 24 weeks after end of treatment; End of Treatment Response (ETR): HCV RNA undetectable (by LOD) at treatment end (completed or prematurely discontinued).

HCV genotype 1 [2] = assay: study of alisporivir in HCV Genotype 1 non responder patients, decline in HCV RNA; type: in vivo, human; details: first week of treatment, with peg-IFNα2a plus RBV
Experimental: The efficacy of the therapy regimen may be monitored using standard protocols. Treatment may be followed by determinations of HCV in serum and measurement of serum ALT (alanine-aminotransferase) levels. For example, the patients may be assessed for the presence of HCV RNA in their plasma. HCV RNA (IU/mL) can be measured at regular intervals during the treatment, e.g., at Day 1 (pre-dose and 4, 8, and 12 hours post-dose) and pre-dose at Day 2, Day 3, Day 8, Day 15, Day 29, and at Week 12, Week 24, Week 36, Week 48, Week 72 (when applicable), and at follow up. In addition, the HCV strains in the patient can be sequenced and assessed for identification of mutations selecting for resistance.
In addition, study of the use of alisporivir in HCV Genotype 1 non responder patients addressed the utility of a 400 mg BID dose regimen versus the same total daily dose given once daily (800 mg QD) during the first week of treatment, both with peg-IFNα2a plus RBV, and the possible relationships between Cmax, AUC, or Cmin and antiviral effect at the end of that treatment period. In this hard to treat patient population, the 400 mg BID dose provided greater decline in HCV RNA from baseline (−1.41 log10 IU/m1) than the 800 mg QD dose (−0.70 log10 IU/ml). […]

[3] = boceprevir recipients; cited from earlier work

Structure (SMILES)	rates of achievement of sustained virologic response (SVR) versus peg-IFNα2a (HCV genotype 1 [1])	decline in HCV RNA from baseline (HCV genotype 1 [2]; 400 mg BID) [log10 IU/m1]	decline in HCV RNA from baseline (HCV genotype 1 [2]; 800 mg QD) [log10 IU/ml]	treatment-emergent anemia versus pegylated interferon and ribavirin recipients [3]
C/C=C/C[C@@H](C)[C@@H](O)[C@H]1C(=O)N[C@@H](CC)C(=O)N(C)[C@H](C)C(=O)N(CC)[C@@H](C(C)C)C(=O)N[C@@H](C(C)C)C(=O)N(C)[C@@H](CC(C)C)C(=O)N[C@@H](C)C(=O)N[C@H](C)C(=O)N(C)[C@@H](CC(C)C)C(=O)N(C)[C@@H](CC(C)C)C(=O)N(C)[C@@H](C(C)C)C(=O)N1C [alisporivir, Alisporivir]	superior	−1.41	−0.70	–
CC(C)(C)NC(=O)N[C@H](C(=O)N1C[C@H]2[C@@H]([C@H]1C(=O)NC(CC1CCC1)C(=O)C(N)=O)C2(C)C)C(C)(C)C (stereo partly shown) [boceprevir]	–	–	–	significantly higher
